Experimental data published in patent US9840494B2, “Quinazoline derivative” (Tianjin Hemay Oncology Pharmaceutical Co., Ltd., priority 2013, dated 2017).
Marks after values point to notes of the source that are not given here.

Legend:
[1] = test system: FaDu human head and neck cancer xenograft; experiment: FaDu human head and neck cancer xenograft model; format: in vivo, nude mice; details: for Tumor Weight (x ± S.D.) / Tumor Inhibitor Rate / Relative Tumor Volume (x ± S.D.) / T/C / Tumor Volume (x ± S.D.): FaDu xenograft; for Tumor Inhibitor Rate: by tumor weight; for Relative Tumor Volume (x ± S.D.) / T/C / Tumor Volume (x ± S.D.): end of the assay
Protocol: (§1) Tumor cells were cultured in an incubator at 37° C. with 5% CO2 using MEM medium containing 10% inactivated fetal calf serum, 100 U/ml penicillin and 100 μg/ml streptomycin. The tumor cells in logarithmic growth phase were collected, adjusted to an appropriate density and injected subcutaneously into nude mice (0.2 ml per mouse). An xenograft model was established after tumor was formed in the nude mice and passaged in vivo for more than three generations.
(§2) The above-mentioned tumor-bearing mice were sacrificed by cervical dislocation. The tumor was taken out and cut into small tumor pieces (about 2 mm×2 mm×2 mm) under sterile conditions. The small tumor pieces were inoculated subcutaneously into nude mice on the right shoulder blade with a trocar. […] The animals in each group were subjected to intragastric administration daily for 14 consecutive days. The day of grouping is assigned as day 0.
(§3) Tumor volume is calculated as: volume=0.5×long diameter×short diameter^2. The relative tumor volume (RTV) was calculated based on the measurements as: RTV=Vt/V0, wherein V0 is the tumor volume measured when the animals were grouped to be administrated (i.e., d0), and Vt is the tumor volume when each measurement was taken. Relative tumor proliferation rate T/C was calculated based on relative tumor volume, in which T is the mean value of the relative tumor volume of the treatment group, and C is the mean value of the relative tumor volume of the solvent control group. T/C was calculated as follows: T/C=TRTV/CRTV×100% (TRTV: RTV of the treatment group; CRTV: RTV of the solvent control group) Inhibition rate (%)=(mean tumor weight of the solvent control group−mean tumor weight of the treatment group)/mean tumor weight of the solvent control group×100%. Percentage of body weight change=Wn/W0×100% (Wn: mean body weight of experimental animals in each group at day n, W0: mean body weight of experimental animals in each group at day 0).
(§4) One-Way ANOVA test was conducted in SPSS13.0, performing statistical analysis between groups.

[2] = test system: HCC827 human non-small cell lung cancer xenograft; experiment: HCC827 human non-small cell lung cancer xenograft model; format: in vivo, nude mice; details: for Tumor Weight (x ± S.D.) / Tumor Inhibitor Rate / Relative Tumor Volume (x ± S.D.) / T/C / Tumor Volume (x ± S.D.): HCC827 xenograft; for Tumor Inhibitor Rate: by tumor weight; for Relative Tumor Volume (x ± S.D.) / T/C / Tumor Volume (x ± S.D.): end of the assay
Protocol: as §1, with “after a” for “after”
as §2
as §3, with “group x 100%.” for “group×100%.”
as §4

[3] = FaDu xenograft nude mice, 20, 40 and 80 mg/kg intragastric daily for 14 days
[4] = 20 mg/kg intragastric daily for 14 days
[5] = 40 mg/kg intragastric daily for 14 days
[6] = 80 mg/kg intragastric daily for 14 days
[7] = HCC827 xenograft nude mice, 20, 40 and 80 mg/kg intragastric daily for 14 days

Which “Body weights of the experimental animals” value [1, 3] does the source give for `COCCOc1cc2ncnc(Nc3ccc(F)c(Cl)c3)c2cc1NC(=O)C=C1CCN(CCOC)CC1.CS(=O)(=O)O` [Compound 3, N-[4-(3-chloro-4-fluorophenylamino)-7-(2-methoxyethoxy)quinazolin-6-yl]-2-[1-(2-methoxyethyl)piperidin-4-ylidene]acetamide dimethylsulfonate] here?
Its value is “not significantly reduced”.

And the “abnormality in the experimental animals” value [1, 3]?
Its value is “no significant abnormality was observed”.

And the “Tumor Weight (x ± S.D.)” value [1, 4]?
The value was 0.684 ± 0.192 g.

And the “Tumor Inhibitor Rate” value [1, 4]?
Its value is 37.5%.

What about the “Relative Tumor Volume (x ± S.D.)” value [1, 4] of the same compound?
Its value is 6.1 ± 1.3.

And the T/C [1, 4]?
Its T/C is 61.4%.

What about the “Tumor Volume (x ± S.D.)” value [1, 4] of the same compound?
Its value is 703.3 ± 144.2** mm^3.

What about the “Tumor Weight (x ± S.D.)” value [1, 5] of the same compound?
The value was 0.522 ± 0.427 g.

What about the “Tumor Inhibitor Rate” value [1, 5] of the same compound?
Its value is 52.4%.

What about the “Relative Tumor Volume (x ± S.D.)” value [1, 5] of the same compound?
Its value is 5.5 ± 1.9.

What about the T/C [1, 5] of the same compound?
The T/C was 54.7%.

And the “Tumor Volume (x ± S.D.)” value [1, 5]?
The value was 602.9 ± 204.4*** mm^3.

And the “Tumor Weight (x ± S.D.)” value [1, 6]?
The value was 0.260 ± 0.128 g.

And the “Tumor Inhibitor Rate” value [1, 6]?
The value was 76.2%.

What about the “Relative Tumor Volume (x ± S.D.)” value [1, 6] of the same compound?
Its value is 3.2 ± 1.6.

What about the T/C [1, 6] of the same compound?
Its T/C is 31.6%.

What about the “Tumor Volume (x ± S.D.)” value [1, 6] of the same compound?
The value was 352.3 ± 157.0*** mm^3.

And the “Body weights of the experimental animals” value [2, 7]?
The value was “not significantly reduced”.

And the “abnormality in the experimental animals” value [2, 7]?
Its value is “no significant abnormality was observed”.

And the “Tumor Weight (x ± S.D.)” value [2, 4]?
The value was 0.045 ± 0.074 g.

What about the “Tumor Inhibitor Rate” value [2, 4] of the same compound?
The value was 91.7%.

What about the “Relative Tumor Volume (x ± S.D.)” value [2, 4] of the same compound?
The value was 0.36 ± 0.45.

And the T/C [2, 4]?
Its T/C is 5.0%.

And the “Tumor Volume (x ± S.D.)” value [2, 4]?
Its value is 57.3 ± 77.6*** mm^3.

What about the “Tumor Weight (x ± S.D.)” value [2, 5] of the same compound?
The value was 0.026 ± 0.026 g.

What about the “Tumor Inhibitor Rate” value [2, 5] of the same compound?
Its value is 95.2%.

What about the “Relative Tumor Volume (x ± S.D.)” value [2, 5] of the same compound?
The value was 0.13 ± 0.10.

What about the T/C [2, 5] of the same compound?
The T/C was 1.8%.

And the “Tumor Volume (x ± S.D.)” value [2, 5]?
The value was 18.4 ± 11.6*** mm^3.

And the “Tumor Weight (x ± S.D.)” value [2, 6]?
Its value is 0.014 ± 0.013 g.

What about the “Tumor Inhibitor Rate” value [2, 6] of the same compound?
The value was 97.4%.

What about the “Relative Tumor Volume (x ± S.D.)” value [2, 6] of the same compound?
Its value is 0.13 ± 0.04.

And the T/C [2, 6]?
Its T/C is 1.8%.

And the “Tumor Volume (x ± S.D.)” value [2, 6]?
The value was 20.9 ± 8.6*** mm^3.
